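Method: 48-hour compound exposure of cells in 96-well plates, five concentrations, linear interpolation of endpoints. The concentration for 50% growth inhibition is given as GI50.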 The source made the active and inactive calls. No stated cut-off is given here; in the data, active = GI50 up to about 1.1 µM and inactive = higher.
Tests used:
Assay in all cases: DTP human tumour cell line panel, 48 h
NCI/ADR-RES = system: NCI/ADR-RES
SK-OV-3 = system: SK-OV-3
Hs-578T = system: Hs-578T
M14 = system: M14
COLO 205 = system: COLO 205
786-0 = system: 786-0
BT-549 = system: BT-549
SR = system: SR
OVCAR-8 = system: OVCAR-8
KM12 = system: KM12
HCT-15 = system: HCT-15
SNB-19 = system: SNB-19
NCI-H226 = system: NCI-H226
DU-145 = system: DU-145
SF-295 = system: SF-295
PC-3 = system: PC-3
SK-MEL-5 = system: SK-MEL-5
SK-MEL-2 = system: SK-MEL-2
NCI-H460 = system: NCI-H460
TK-10 = system: TK-10

Row | Structure (SMILES) | GI50 (NCI/ADR-RES) | GI50 (SK-OV-3) | GI50 (Hs-578T) | GI50 (M14) | GI50 (COLO 205) | GI50 (786-0) | GI50 (BT-549) | GI50 (SR) | GI50 (OVCAR-8) | GI50 (KM12) | GI50 (HCT-15) [µM] | GI50 (SNB-19) | GI50 (NCI-H226) | GI50 (DU-145) | GI50 (SF-295) | GI50 (PC-3) | GI50 (SK-MEL-5) | GI50 (SK-MEL-2) | GI50 (NCI-H460) | GI50 (TK-10)
1 | CCOc1cc(NC(C)=O)ccc1C(=O)NNS(=O)(=O)c1ccc(NC(C)=O)cc1 | 69.8 µM (inactive) | 50.9 µM (inactive) | 41.7 µM (inactive) | 56 µM (inactive) | 24.7 µM (inactive) | 42.3 µM (inactive) | > 100 µM (inactive) | 13.6 µM (inactive) | 69.3 µM (inactive) | 41.5 µM (inactive) | 53.6 | 77.4 µM (inactive) | 25.2 µM (inactive) | > 100 µM (inactive) | 39.4 µM (inactive) | 46.7 µM (inactive) | 22.3 µM (inactive) | 28.8 µM (inactive) | 39.6 µM (inactive) | –
2 | COc1ccc(OC)c2sc(N3C(=O)/C(=C/c4ccc(Cl)cc4)N=C3c3ccccc3)nc12 | > 100 µM (inactive) | > 100 µM (inactive) | > 100 µM (inactive) | > 100 µM (inactive) | > 100 µM (inactive) | 73.3 µM (inactive) | > 100 µM (inactive) | 43.4 µM (inactive) | 60.3 µM (inactive) | 60 µM (inactive) | 98.4 | > 100 µM (inactive) | – | > 100 µM (inactive) | 76.6 µM (inactive) | 58.1 µM (inactive) | 65 µM (inactive) | > 100 µM (inactive) | 80.5 µM (inactive) | 72.6 µM (inactive)
3 | O=C(Cn1c(=O)oc2ccc(C(=O)c3cccc(Cl)c3)cc21)c1ccccc1 | > 100 µM (inactive) | 42.1 µM (inactive) | > 100 µM (inactive) | > 100 µM (inactive) | 33.9 µM (inactive) | > 10 µM (inactive) | 18.1 µM (inactive) | 36.3 µM (inactive) | > 100 µM (inactive) | – | 41.2 | > 10 µM (inactive) | 40.9 µM (inactive) | > 100 µM (inactive) | 44.6 µM (inactive) | > 100 µM (inactive) | 23.1 µM (inactive) | 67.3 µM (inactive) | 41.7 µM (inactive) | > 100 µM (inactive)
4 | Cc1c(-c2ccccc2)[nH]c2cn[nH]c(=O)c12 | 73.8 µM (inactive) | 42.5 µM (inactive) | 74.6 µM (inactive) | > 100 µM (inactive) | > 100 µM (inactive) | > 100 µM (inactive) | 75 µM (inactive) | 88.7 µM (inactive) | > 100 µM (inactive) | 83.2 µM (inactive) | 55.3 | > 100 µM (inactive) | – | > 100 µM (inactive) | 41 µM (inactive) | 67.9 µM (inactive) | 67.9 µM (inactive) | 90.8 µM (inactive) | > 100 µM (inactive) | > 100 µM (inactive)
5 | Cc1ccc(/N=N/C(=N\c2ccc(Cl)cc2)c2ccc(N(CCC#N)CCC#N)cc2)cc1 | 57.8 µM (inactive) | > 100 µM (inactive) | 33.7 µM (inactive) | 30.8 µM (inactive) | 17.4 µM (inactive) | 52 µM (inactive) | 16.7 µM (inactive) | 22 µM (inactive) | 63.8 µM (inactive) | 19.1 µM (inactive) | 14.2 | > 100 µM (inactive) | > 100 µM (inactive) | 37.7 µM (inactive) | 3.98 µM (inactive) | 22.6 µM (inactive) | 2.63 µM (inactive) | – | 18.1 µM (inactive) | 21.7 µM (inactive)
6 | CCOC(=O)c1ccc(C(=O)/C(C#N)=C2\CCCN2)[nH]1 | 78.3 µM (inactive) | > 100 µM (inactive) | > 100 µM (inactive) | > 100 µM (inactive) | > 100 µM (inactive) | > 100 µM (inactive) | > 100 µM (inactive) | 19.6 µM (inactive) | > 100 µM (inactive) | 55 µM (inactive) | > 100 | > 100 µM (inactive) | > 100 µM (inactive) | > 100 µM (inactive) | > 100 µM (inactive) | 67.8 µM (inactive) | 41.9 µM (inactive) | 97.1 µM (inactive) | > 100 µM (inactive) | –
7 | O=C(CCN1CCOCC1)Nc1ccc2sc3ccccc3c(=O)c2n1 | 43.4 µM (inactive) | 47.6 µM (inactive) | 36.4 µM (inactive) | 37.8 µM (inactive) | 25 µM (inactive) | 31.6 µM (inactive) | 28.7 µM (inactive) | 44.3 µM (inactive) | 35.9 µM (inactive) | 50.4 µM (inactive) | 33.9 | 49.2 µM (inactive) | – | 47 µM (inactive) | 82.4 µM (inactive) | 18.2 µM (inactive) | 27.1 µM (inactive) | 64 µM (inactive) | 37.8 µM (inactive) | 37.4 µM (inactive)
8 | CCCCC(C#N)(OP1(=O)OC(c2ccccc2)C(C)N1C)c1ccccc1 (configuration not stated) | 20 µM (inactive) | 19.5 µM (inactive) | 16.3 µM (inactive) | 20.7 µM (inactive) | 17.8 µM (inactive) | 17.3 µM (inactive) | 20.3 µM (inactive) | 19.9 µM (inactive) | 17.6 µM (inactive) | 19.6 µM (inactive) | 20.3 | 19.2 µM (inactive) | – | 19.7 µM (inactive) | 17.5 µM (inactive) | 17 µM (inactive) | 17.3 µM (inactive) | 19.2 µM (inactive) | 16.1 µM (inactive) | 18.9 µM (inactive)

Source: ChEMBL document CHEMBL1201862, “PubChem BioAssay data set” (2004)
